In patent US20070123546A1, “2-amino-7,8-dihydro-6H-pyrido[4,3-d]pyrimidin-5-ones” (Chiron Corporation, priority 2005, published 2007):

target: His-tagged N-terminal ATP binding domain (amino acid residues 9-236) of HSP90α (Homo sapiens, UniProt P07900); assay: HSP90 inhibitor binding potency: TRF competition binding assay; conditions: Table 1; competition with biotinylated radicicol
Outline: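 Competition against biotinylated radicicol for binding to the His-tagged 9-236 ATP domain of HSP90α: 2 h, room temperature, HEPES/MgCl2/KCl/BSA buffer. Streptavidin capture, then europium-labeled anti-His antibody and enhancement solution; europium counts give IC50.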

Row | IC50 [µM] | SMILES
1 | < 10 | COc1cncc(-c2cc(F)ccc2[C@H]2Cc3nc(N)nc(C)c3C(=O)N2)n1 [Compound 11, (R)-2-Amino-7-[4-fluoro-2-(6-methoxy-pyrazin-2-yl)-phenyl]-4-methyl-7,8-dihydro-6H-pyrido[4,3-d]pyrimidin-5-one]
2 | > 10 | COc1ncc(-c2cc(F)ccc2C2Cc3nc(N)nc(C)c3C(=O)N2)c(OC)n1 (centres unmarked) [Compound 35, 2-Amino-7-[2-(2,4-dimethoxy-pyrimidin-5-yl)-4-fluoro-phenyl]-4-methyl-7,8-dihydro-6H-pyrido[4,3-d]pyrimidin-5-one]
3 | < 10 | COc1ncccc1-c1ccccc1C1Cc2nc(N)nc(C)c2C(=O)N1 (centres unmarked) [Compound 13, 2-Amino-7-[2-(2-methoxy-pyridin-3-yl)-phenyl]-4-methyl-7,8-dihydro-6H-pyrido[4,3-d]pyrimidin-5-one]
4 | < 10 | Cc1ccc(-c2cc(F)ccc2C2Cc3nc(N)nc(C)c3C(=O)N2)c(F)c1 (centres unmarked) [Compound 29, 2-Amino-7-(5,2′-difluoro-4′-methyl-biphenyl-2-yl)-4-methyl-7,8-dihydro-6H-pyrido[4,3-d]pyrimidin-5-one]
5 | < 10 | COc1cccc(-c2cc(F)ccc2C2Cc3nc(N)nc(C)c3C(=O)N2C)n1 (centres unmarked) [Compound 7, 2-Amino-7-[4-fluoro-2-(6-methoxy-pyridin-2-yl)-phenyl]-4,6-dimethyl-7,8-dihydro-6H-pyrido[4,3-d]pyrimidin-5-one]
6 | < 10 | Cc1nc(N)nc2c1C(=O)NC(c1ccc(F)cc1-c1cncc3ccccc13)C2 (centres unmarked) [Compound 18, 2-Amino-7-(4-fluoro-2-isoquinolin-4-yl-phenyl)-4-methyl-7,8-dihydro-6H-pyrido[4,3-d]pyrimidin-5-one]
7 | < 10 | Cc1nc(N)nc2c1C(=O)N[C@@H](c1ccccc1-c1cccnc1F)C2 [Compound 1, (R)-2-Amino-7-[2-(2-fluoro-pyridin-3-yl)-phenyl]-4-methyl-7,8-dihydro-6H-pyrido[4,3-d]pyrimidin-5-one]
8 | > 10 | Cc1nc(N)nc2c1C(=O)N(Cc1ccccc1)[C@H](c1ccc(F)cc1-c1cccnc1F)C2 [Compound 2, (S)-2-Amino-6-benzyl-7-[4-fluoro-2-(2-fluoro-pyridin-3-yl)-phenyl]-4-methyl-7,8-dihydro-6H-pyrido[4,3-d]pyrimidin-5-one]

same assay, conditions: Table 2; competition with biotinylated radicicol

Row | IC50 [µM] | SMILES
9 | < 10 | CCOc1cncc(-c2cc(F)ccc2[C@H]2Cc3nc(N)nc(CC)c3C(=O)N2)n1 [Compound 86, (R)-2-Amino-7-[2-(6-ethoxy-pyrazin-2-yl)-4-fluoro-phenyl]-4-ethyl-7,8-dihydro-6H-pyrido[4,3-d]pyrimidin-5-one]
10 | > 10 | Cc1nc(N)nc2c1C(=O)N[C@@H](c1ccc(F)cc1-c1nccc(N3CCCC3)n1)C2 [Compound 49]
11 | < 10 | CCOc1nc(-c2cc(F)ccc2[C@H]2Cc3nc(N)nc(C)c3C(=O)N2)ncc1F [Compound 72]
12 | < 10 | COc1nc(-c2cc(F)ccc2[C@H]2Cc3nc(N)ncc3C(=O)N2)ccc1N [Compound 46, (R)-2-Amino-7-[2-(5-amino-6-methoxy-pyridin-2-y1)-4-fluoro-phenyl]-7,8-dihydro-6H-pyrido[4,3-d]pyrimidin-5-one]
13 | < 10 | CCc1nc(N)nc2c1C(=O)N[C@@H](c1ccccc1-c1cnc(N)c(OC)n1)C2 [Compound 79, (R)-2-Amino-7-[2-(5-amino-6-methoxy-pyrazin-2-yl)-phenyl]-4-ethyl-7,8-dihydro-6H-pyrido[4,3-d]pyrimidin-5-one]

same assay, conditions: Table 3; competition with biotinylated radicicol

Row | IC50 [µM] | SMILES
14 | < 10 | COc1nc(-c2cc(F)ccc2[C@H]2Cc3nc(N)nc(C)c3C(=O)N2)cs1 [Compound 95, (R)-2-Amino-7-[4-fluoro-2-(2-methoxy-thiazol-4-yl)-phenyl]-4-methyl-7,8-dihydro-6H-pyrido[4,3-d]pyrimidin-5-one]
15 | < 10 | COc1cncc(-c2cc(F)ccc2[C@H]2Cc3nc(N)nc(C)c3C(=O)N2Cc2ccc(F)cc2)n1 [Compound 161, (R)-2-Amino-6-(4-fluoro-benzyl)-7-[4-fluoro-2-(6-methoxy-pyrazin-2-yl)-phenyl]-4-methyl-7,8-dihydro-6H-pyrido[4,3-d]pyrimidin-5-one]
16 | < 10 | COc1cncc(-c2cc(F)ccc2[C@H]2Cc3nc(N)nc(C)c3C(=O)N2Cc2ccccc2F)n1 [Compound 129, (R)-2-Amino-6-(2-fluoro-benzyl)-7-[4-fluoro-2-(6-methoxy-pyrazin-2-yl)-phenyl]-4-methyl-7,8-dihydro-6H-pyrido[4,3-d]pyrimidin-5-one]
17 | < 10 | Cc1nc(N)nc2c1C(=O)N(Cc1ccccc1)[C@@H](c1ccc(F)cc1-c1cccc(F)c1F)C2 [Compound 138, (R)-2-Amino-6-benzyl-4-methyl-7-(5,2′,3′-trifluoro-biphenyl-2-yl)-7,8-dihydro-6H-pyrido[4,3-d]pyrimidin-5-one]
18 | < 10 | Nc1ncc2c(n1)C[C@H](c1ccc(F)cc1)NC2=O [Compound 98, (R)-2-Amino-7-(4-fluoro-phenyl)-7,8-dihydro-6H-pyrido[4,3-d]pyrimidin-5-one]
19 | < 10 | COc1nc(-c2cc(F)ccc2C2Cc3nc(N)nc(C)c3C(=O)N2)cnc1N (centres unmarked) [Compound 99, 2-Amino-7-[2-(5-amino-6-methoxy-pyrazin-2-yl)-4-fluoro-phenyl]-4-methyl-7,8-dihydro-6H-pyrido[4,3-d]pyrimidin-5-one]
20 | < 10 | Cc1nc(N)nc2c1C(=O)N(CCCNC(=O)OC(C)(C)C)[C@@H](c1ccc(F)cc1-c1cccnc1)C2 [Compound 167, {3-[(R)-2-Amino-7-(4-fluoro-2-pyridin-3-yl-phenyl)-4-methyl-5-oxo-7,8-dihydro-5H-pyrido[4,3-d]pyrimidin-6-yl]-propyl}-carbamic acid tert-butyl ester]
21 | > 10 | Cc1nc(N)nc2c1C(=O)NC(c1ccccc1)C2 (centres unmarked) [Compound 92, 2-Amino-4-methyl-7-phenyl-7,8-dihydro-6H-pyrido[4,3-d]pyrimidin-5-one]
22 | < 10 | COc1cccc(-c2cc(F)ccc2[C@H]2Cc3nc(N)nc(C)c3C(=O)N2CCC(C)C)n1 [Compound 150, (R)-2-Amino-7-[4-fluoro-2-(6-methoxy-pyridin-2-yl)-phenyl]-4-methyl-6-(3-methyl-butyl)-7,8-dihydro-6H-pyrido[4,3-d]pyrimidin-5-one]
23 | > 10 | COc1nc(-c2cc(F)ccc2[C@@H]2Cc3nc(N)nc(C)c3C(=O)N2)cnc1N [Compound 100, (S)-2-Amino-7-[2-(5-amino-6-methoxy-pyrazin-2-yl)-4-fluoro-phenyl]-4-methyl-7,8-dihydro-6H-pyrido[4,3-d]pyrimidin-5-one]
24 | < 10 | Cc1nc(N)nc2c1C(=O)NC(c1ccc(F)cc1-c1ccccc1C(F)(F)F)C2 (centres unmarked) [Compound 89, 2-Amino-7-(5-fluoro-2′-trifluoromethyl-biphenyl-2-yl)-4-methyl-7,8-dihydro-6H-pyrido[4,3-d]pyrimidin-5-one]
25 | < 10 | Cc1nc(N)nc2c1C(=O)N(CCC(C)C)[C@@H](c1ccc(F)cc1-c1cccnc1F)C2 [Compound 151, (R)-2-Amino-7-[4-fluoro-2-(2-fluoro-pyridin-3-yl)-phenyl]-4-methyl-6-(3-methyl-butyl)-7,8-dihydro-6H-pyrido[4,3-d]pyrimidin-5-one]
26 | < 10 | COc1ncccc1-c1cc(F)ccc1[C@H]1Cc2nc(N)nc(C)c2C(=O)N1CC(C)C [Compound 158, (R)-2-Amino-7-[4-fluoro-2-(2-methoxy-pyridin-3-yl)-phenyl]-isobutyl-4-methyl-7,8-dihydro-6H-pyrido[4,3-d]pyrimidin-5-one]

same assay, conditions: Table 4; competition with biotinylated radicicol

Row | IC50 [µM] | SMILES
27 | < 10 | COc1ccccc1-c1cc(F)ccc1[C@H]1Cc2nc(N)ncc2C(=O)N1 [Compound 176, (R)-2-Amino-7-(5-fluoro-2′-methoxy-biphenyl-2-yl)-7,8-dihydro-6H-pyrido[4,3-d]pyrimidm-5-one]
28 | ≥ 10 | COc1ccc([C@H]2Cc3nc(N)nc(C)c3C(=O)N2)c(Br)c1 [Compound 236, (R)-2-Amino-7-(2-bromo-4-methoxy-phenyl)-4-methyl-7,8-dihydro-6H-pyrido[4,3-d]pyrimidin-5-one]
29 | < 10 | CCOc1nc(-c2ccccc2[C@H]2Cc3nc(N)nc(C)c3C(=O)N2)cnc1N [Compound 197, (R)-2-Amino-7-[2-(5-amino-6-ethoxy-pyrazin-2-yl)-phenyl]-4-methyl-7,8-dihydro-6H-pyrido[4,3-d]pyrimidin-5-one]
30 | < 10 | Cc1ccccc1-c1cc(F)ccc1[C@H]1Cc2nc(N)ncc2C(=O)N1 [Compound 181, (R)-2-Amino-7-(5-fluoro-2′-methyl-biphenyl-2-yl)-7,8-dihydro-6H-pyrido[4,3-d]pyrimidin-5-one]
31 | < 10 | COc1cc(F)ccc1-c1cc(F)ccc1[C@H]1Cc2nc(N)ncc2C(=O)N1 [Compound 178]
32 | < 10 | CCOc1nc(-c2cc(F)ccc2[C@H]2Cc3nc(N)nc(C)c3C(=O)N2)ncc1F [Compound 174, (R)-2-Amino-7-[2-(4-ethoxy-5-fluoro-pyrunidin-2-yl)-4-fluoro-phenyl]-4-methyl-7,8-dihydro-6H-pyrido[4,3-d]pyrimidin-5-one]
33 | < 10 | COc1nc(-c2cc(F)ccc2[C@H]2Cc3nc(N)nc(C)c3C(=O)N2)ncc1Cl [Compound 202, (R)-2-Amino-7-[2-(5-chloro-4-methoxy-pyrimidin-2-yl)-4-fluoro-phenyl]-4-methyl-7,8-dihydro-6H-pyrido[4,3-d]pyrimidin-5-one]
34 | < 10 | CCc1nc(N)nc2c1C(=O)N[C@@H](c1ccc(F)cc1-c1cccc(OC)n1)C2 [Compound 211, (R)-2-Amino-4-ethyl-7-[4-fluoro-2-(6-methoxy-pyridin-2-yl)-phenyl]-7,8-dihydro-6H-pyrido[4,3-d]pyrimidin-5-one]
35 | < 10 | COc1ncc(-c2cc(F)ccc2[C@H]2Cc3nc(N)nc(C)c3C(=O)N2)s1 [Compound 225, (R)-2-Amino-7-[4-fluoro-2-(2-methoxy-thiazol-5-yl)-phenyl]-4-methyl-7,8-dihydro-6H-pyrido[4,3-d]pyrimidin-5-one]
